{
  "source": "ChEMBL document CHEMBL1201862",
  "about": "“PubChem BioAssay data set” (2004)",
  "experiment_in_all_cases": "DTP human tumour cell line panel, 48 h",
  "key": {"COLO 205": {"test_system": "COLO 205"}, "786-0": {"test_system": "786-0"}, "CAKI-1": {"test_system": "CAKI-1"}, "M14": {"test_system": "M14"}, "RXF 393": {"test_system": "RXF 393"}, "DU-145": {"test_system": "DU-145"}, "MDA-MB-435": {"test_system": "MDA-MB-435"}, "MOLT-4": {"test_system": "MOLT-4"}, "HCC 2998": {"test_system": "HCC 2998"}, "NCI-H522": {"test_system": "NCI-H522"}, "SN12C": {"test_system": "SN12C"}, "HCT-15": {"test_system": "HCT-15"}, "SW-620": {"test_system": "SW-620"}, "SNB-19": {"test_system": "SNB-19"}, "OVCAR-5": {"test_system": "OVCAR-5"}, "IGROV-1": {"test_system": "IGROV-1"}, "SK-MEL-2": {"test_system": "SK-MEL-2"}, "NCI-H460": {"test_system": "NCI-H460"}, "HL-60": {"test_system": "HL-60"}, "KM12": {"test_system": "KM12"}},
  "note": "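48-hour exposure; five concentrations; linearly interpolated endpoints. Here, GI50 denotes the concentration required for 50% inhibition of growth.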 Calls of active or inactive are those of the source. No stated cut-off is given here; in the data, active = GI50 up to about 1.1 µM and inactive = higher.",
  "data": [
    {"compound": "CC[C@@]1(O)C(=O)OCc2c1cc1n(c2=O)Cc2c-1nc1ccccc1c2Cl", "values": [
      {"measurement": "GI50", "setting": "COLO 205", "result": "0.658 µM (active)"},
      {"measurement": "GI50", "setting": "786-0", "result": "< 0.01 µM (active)"},
      {"measurement": "GI50", "setting": "CAKI-1", "result": "< 0.01 µM (active)"},
      {"measurement": "GI50", "setting": "M14", "result": "< 0.0133 µM (active)"},
      {"measurement": "GI50", "setting": "RXF 393", "result": "< 0.0132 µM (active)"},
      {"measurement": "GI50", "setting": "DU-145", "result": "< 0.01 µM (active)"},
      {"measurement": "GI50", "setting": "MDA-MB-435", "result": "0.0984 µM (active)"},
      {"measurement": "GI50", "setting": "MOLT-4", "result": "< 0.01 µM (active)"},
      {"measurement": "GI50", "setting": "HCC 2998", "result": "0.521 µM (active)"},
      {"measurement": "GI50", "setting": "NCI-H522", "result": "< 0.0127 µM (active)"},
      {"measurement": "GI50", "setting": "SN12C", "result": "< 0.01 µM (active)"},
      {"measurement": "GI50", "setting": "HCT-15", "result": 0.267, "unit": "µM"},
      {"measurement": "GI50", "setting": "SW-620", "result": "0.0348 µM (active)"},
      {"measurement": "GI50", "setting": "SNB-19", "result": "< 0.0107 µM (active)"},
      {"measurement": "GI50", "setting": "OVCAR-5", "result": "0.0811 µM (active)"},
      {"measurement": "GI50", "setting": "IGROV-1", "result": "0.211 µM (active)"},
      {"measurement": "GI50", "setting": "SK-MEL-2", "result": "0.396 µM (active)"},
      {"measurement": "GI50", "setting": "NCI-H460", "result": "< 0.01 µM (active)"},
      {"measurement": "GI50", "setting": "HL-60", "result": "< 0.01 µM (active)"},
      {"measurement": "GI50", "setting": "KM12", "result": "0.124 µM (active)"}
    ]},
    {"compound": "O=C(NC1=C(Cl)C(=O)c2ccccc2C1=O)C(=O)c1c(O)c2ccccc2oc1=O", "values": [
      {"measurement": "GI50", "setting": "COLO 205", "result": "5.87 µM (inactive)"},
      {"measurement": "GI50", "setting": "786-0", "result": "6.24 µM (inactive)"},
      {"measurement": "GI50", "setting": "CAKI-1", "result": "9.66 µM (inactive)"},
      {"measurement": "GI50", "setting": "M14", "result": "1.83 µM (inactive)"},
      {"measurement": "GI50", "setting": "RXF 393", "result": "5.62 µM (inactive)"},
      {"measurement": "GI50", "setting": "DU-145", "result": "1.49 µM (inactive)"},
      {"measurement": "GI50", "setting": "MDA-MB-435", "result": "1.39 µM (inactive)"},
      {"measurement": "GI50", "setting": "MOLT-4", "result": "4.65 µM (inactive)"},
      {"measurement": "GI50", "setting": "HCC 2998", "result": "8.11 µM (inactive)"},
      {"measurement": "GI50", "setting": "NCI-H522", "result": "3.69 µM (inactive)"},
      {"measurement": "GI50", "setting": "SN12C", "result": "3.7 µM (inactive)"},
      {"measurement": "GI50", "setting": "HCT-15", "result": 3.18, "unit": "µM"},
      {"measurement": "GI50", "setting": "SW-620", "result": "5.22 µM (inactive)"},
      {"measurement": "GI50", "setting": "SNB-19", "result": "4.6 µM (inactive)"},
      {"measurement": "GI50", "setting": "OVCAR-5", "result": "11.5 µM (inactive)"},
      {"measurement": "GI50", "setting": "IGROV-1", "result": "3.27 µM (inactive)"},
      {"measurement": "GI50", "setting": "SK-MEL-2", "result": "2.32 µM (inactive)"},
      {"measurement": "GI50", "setting": "NCI-H460", "result": "2.54 µM (inactive)"},
      {"measurement": "GI50", "setting": "HL-60", "result": "3.21 µM (inactive)"},
      {"measurement": "GI50", "setting": "KM12", "result": "4.55 µM (inactive)"}
    ]},
    {"compound": "CN(C)CCNC(=O)Cn1ccc(=O)c2c([N+](=O)[O-])cccc21", "values": [
      {"measurement": "GI50", "setting": "COLO 205", "result": "> 100 µM (inactive)"},
      {"measurement": "GI50", "setting": "786-0", "result": "> 100 µM (inactive)"},
      {"measurement": "GI50", "setting": "CAKI-1", "result": "> 100 µM (inactive)"},
      {"measurement": "GI50", "setting": "M14", "result": "> 100 µM (inactive)"},
      {"measurement": "GI50", "setting": "RXF 393", "result": "> 100 µM (inactive)"},
      {"measurement": "GI50", "setting": "DU-145", "result": "> 100 µM (inactive)"},
      {"measurement": "GI50", "setting": "MDA-MB-435", "result": "> 100 µM (inactive)"},
      {"measurement": "GI50", "setting": "MOLT-4", "result": "> 100 µM (inactive)"},
      {"measurement": "GI50", "setting": "HCC 2998", "result": "> 100 µM (inactive)"},
      {"measurement": "GI50", "setting": "NCI-H522", "result": "> 100 µM (inactive)"},
      {"measurement": "GI50", "setting": "SN12C", "result": "> 100 µM (inactive)"},
      {"measurement": "GI50", "setting": "HCT-15", "result": "> 100", "unit": "µM"},
      {"measurement": "GI50", "setting": "SW-620", "result": "> 100 µM (inactive)"},
      {"measurement": "GI50", "setting": "SNB-19", "result": "> 100 µM (inactive)"},
      {"measurement": "GI50", "setting": "OVCAR-5", "result": "> 100 µM (inactive)"},
      {"measurement": "GI50", "setting": "IGROV-1", "result": "> 100 µM (inactive)"},
      {"measurement": "GI50", "setting": "SK-MEL-2", "result": "> 100 µM (inactive)"},
      {"measurement": "GI50", "setting": "NCI-H460", "result": "> 100 µM (inactive)"},
      {"measurement": "GI50", "setting": "HL-60", "result": "> 100 µM (inactive)"},
      {"measurement": "GI50", "setting": "KM12", "result": "> 100 µM (inactive)"}
    ]}
  ]
}
